According to US20250214986A1, “P2X3 INHIBITOR COMPOUND, SALT THEREOF, POLYMORPH THEREOF AND USE THEREOF” (HUMANWELL HEATHCARE (GROUP) CO., LTD., priority 2022, published 2025):
Structures can show the parent of a compound that is named as a salt.

What was measured:
Assay type in all cases: physicochemical
[1] = Hygroscopicity by dynamic vapor sorption (DVS); details: for crystalline form after DVS test: 0% RH to 95% RH to 0% RH; for vapor sorption / hygroscopicity: 25° C./80% RH; for hygroscopicity: DVS
Method: Dynamic vapor sorption (DVS) curves were acquired on a DVS IntrInsic from Surface Measurement Systems (SMS). The relative humidity at 25° C. was corrected with the deliquescence points of LiCl, Mg(NO3)2, and KCl.
Starting at 0% RH, the test acquired the percentage changes in mass of the samples when the humidity changed (0% RH to 95% RH to 0% RH) at a constant temperature of 25° C.

[2] = Solid state stability (XRPD and HPLC); details: for change of HPLC purity after placement under the corresponding conditions: 60° C. sealed 1 day, 25° C./60% RH and 40° C./75% RH uncovered 1 week/1 month
Method: In the test, the purity, dynamic solubility and stability were tested using an Agilent 1260 high-performance liquid chromatograph, the molar ratio of salt-forming ions was tested using ion chromatography, and the analytical conditions are shown in Tables A-4 and A-5 below. [table]

[3] = Dynamic solubility experiment at 37° C.
Method: In the test, the purity, dynamic solubility and stability were tested using an Agilent 1260 high-performance liquid chromatograph, the molar ratio of salt-forming ions was tested using ion chromatography, and the analytical conditions are shown in Tables A-4 and A-5 below.
Solids at a feeding concentration of 10 mg/mL (calculated based on free base) were rotationally mixed with corresponding vehicles at 37° C. […] After sampling at each time point, the samples were centrifuged (at 10000 rpm) and filtered (through a 0.45 μm PTFE filter head). The HPLC concentrations and pH values of the filtrates were determined.
100.2 mg of NaCl and 50.3 mg of Triton X-100 were weighed into a 50 mL volumetric flask and then completely dissolved by addition of purified water. 816 μL of 1 M hydrochloric acid was added, and the pH was adjusted to 1.8 with 1 M hydrochloric acid or 1 M NaOH solution. The mixed solution was brought to the volume by addition of purified water.
170.5 mg of anhydrous NaH2PO4, 22.2 mg of NaOH, and 310.9 mg of NaCl were weighed into a 50 mL volumetric flask and then completely dissolved by addition of purified water. The pH was adjusted to 6.5 with 1 M hydrochloric acid or 1 M NaOH solution. The mixed solution was brought to the volume by addition of purified water. Subsequently, 55.1 mg of SIF powder was weighed into a 25 mL volumetric flask and completely dissolved with the above solution, and the mixed solution was brought to the volume.
0.21 mL of glacial acetic acid, 101.6 mg of NaOH, and 295.4 mg of NaCl were added into a 25 mL volumetric flask and then completely dissolved by addition of about 20 mL of purified water. The pH was adjusted to 5.0 with 1 M hydrochloric acid or 1 M NaOH solution. The mixed solution was brought to the volume by addition of purified water, and then 280.8 mg of SIF powder was weighed into the flask and completely dissolved.

[4] = 25° C./60% RH/uncovered, 1 week
[5] = 40° C./75% RH/uncovered, 1 week
[6] = 25° C./60% RH/uncovered, 1 month
[7] = 40° C./75% RH/uncovered, 1 month

Cc1cnc(-c2cc(O[C@@H](C)[C@@H](C)O)cc(C(=O)N[C@H](C)c3cnc(C(F)(F)F)nc3)c2F)s1 [Crystalline form A of maleate]
crystalline form after DVS test ([1]; 25° C.): remained unchanged | vapor sorption when the humidity was more than 80% RH ([1]; 25° C., more than 80% RH): rapid vapor sorption | vapor sorption [1]: about 0.41% | hygroscopicity [1]: slight hygroscopicity | HPLC Purity (area %) [2, 4]: 99.71 area % | HPLC purity Relative to starting (%) [2, 4]: 100.00% | HPLC Purity (area %) [2, 5]: 99.65 area % | HPLC purity Relative to starting (%) [2, 5]: 99.94% | change of HPLC purity after placement under the corresponding conditions [2]: no significant change | HPLC Purity (area %) ([2]; 60° C./sealed, 1 day): 99.60 area % | HPLC purity Relative to starting (%) ([2]; 60° C./sealed, 1 day): 99.89% | HPLC Purity (area %) ([2]; Starting): 99.71 area % | Crystalline form change ([3]; FaSSIF, 1 h): Yes^a | S: solubility ([3]; FaSSIF, 1 h): 0.006 mg/mL | pH of filtrate ([3]; FaSSIF, 1 h): 4.9 | Crystalline form change ([3]; FaSSIF, 4 h): Yes^a | S: solubility ([3]; FaSSIF, 4 h): 0.007 mg/mL | pH of filtrate ([3]; FaSSIF, 4 h): 4.7 | Crystalline form change ([3]; FaSSIF, 24 h): Yes^a | S: solubility ([3]; FaSSIF, 24 h): 0.007 mg/mL | pH of filtrate ([3]; FaSSIF, 24 h): 4.5 | Crystalline form change ([3]; FeSSIF, 1 h): Yes^a | S: solubility ([3]; FeSSIF, 1 h): 0.020 mg/mL | pH of filtrate ([3]; FeSSIF, 1 h): 4.9 | Crystalline form change ([3]; FeSSIF, 4 h): Yes^a | S: solubility ([3]; FeSSIF, 4 h): 0.020 mg/mL | pH of filtrate ([3]; FeSSIF, 4 h): 4.9 | Crystalline form change ([3]; FeSSIF, 24 h): Yes^a | S: solubility ([3]; FeSSIF, 24 h): 0.021 mg/mL | pH of filtrate ([3]; FeSSIF, 24 h): 4.9 | solubility in H2O compared with the other forms ([3]; H2O): highest solubility in H2O | Crystalline form change ([3]; H2O, 1 h): Yes^a | S: solubility ([3]; H2O, 1 h): 0.007 mg/mL | pH of filtrate ([3]; H2O, 1 h): 2.3 | Crystalline form change ([3]; H2O, 4 h): Yes^a | S: solubility ([3]; H2O, 4 h): 0.007 mg/mL | pH of filtrate ([3]; H2O, 4 h): 2.3 | Crystalline form change ([3]; H2O, 24 h): Yes^a | S: solubility ([3]; H2O, 24 h): 0.008 mg/mL | pH of filtrate ([3]; H2O, 24 h): 2.2 | Crystalline form change ([3]; SGF, 1 h): Yes^a | S: solubility ([3]; SGF, 1 h): 0.010 mg/mL | pH of filtrate ([3]; SGF, 1 h): 1.7 | Crystalline form change ([3]; SGF, 4 h): Yes^a | S: solubility ([3]; SGF, 4 h): 0.010 mg/mL | pH of filtrate ([3]; SGF, 4 h): 1.7 | Crystalline form change ([3]; SGF, 24 h): Yes^a | S: solubility ([3]; SGF, 24 h): 0.009 mg/mL | pH of filtrate ([3]; SGF, 24 h): 1.7

Cc1cnc(-c2cc(O[C@@H](C)[C@@H](C)O)cc(C(=O)N[C@H](C)c3cnc(C(F)(F)F)nc3)c2F)s1 [Crystalline form A of p-toluenesulfonate]
crystalline form after DVS test ([1]; 25° C.): remained unchanged | vapor sorption [1]: about 0.12% | hygroscopicity [1]: almost no hygroscopicity | HPLC Purity (area %) [2, 6]: 99.92 area % | HPLC purity Relative to starting (%) [2, 6]: 100.00% | HPLC Purity (area %) [2, 4]: 99.92 area % | HPLC purity Relative to starting (%) [2, 4]: 100.00% | HPLC Purity (area %) [2, 7]: 99.92 area % | HPLC purity Relative to starting (%) [2, 7]: 100.00% | HPLC Purity (area %) [2, 5]: 99.92 area % | HPLC purity Relative to starting (%) [2, 5]: 100.00% | change of HPLC purity after placement under the corresponding conditions [2]: no significant change | HPLC Purity (area %) ([2]; 60° C./sealed, 1 day): 99.92 area % | HPLC purity Relative to starting (%) ([2]; 60° C./sealed, 1 day): 100.00% | HPLC Purity (area %) ([2]; Starting): 99.92 area % | Crystalline form change ([3]; FaSSIF, 1 h): Yes^b′ (transformed to free base crystalline form B + additional diffraction peaks) | S: solubility ([3]; FaSSIF, 1 h): 0.028 mg/mL | pH of filtrate ([3]; FaSSIF, 1 h): 2.6 | Crystalline form change ([3]; FaSSIF, 4 h): Yes^a′ | S: solubility ([3]; FaSSIF, 4 h): 0.013 mg/mL | pH of filtrate ([3]; FaSSIF, 4 h): 2.6 | Crystalline form change ([3]; FaSSIF, 24 h): Yes^a′ | S: solubility ([3]; FaSSIF, 24 h): 0.006 mg/mL | pH of filtrate ([3]; FaSSIF, 24 h): 2.6 | Crystalline form change ([3]; FeSSIF, 1 h): Yes^b′ (transformed to free base crystalline form B + additional diffraction peaks) | S: solubility ([3]; FeSSIF, 1 h): 0.095 mg/mL | pH of filtrate ([3]; FeSSIF, 1 h): 4.8 | Crystalline form change ([3]; FeSSIF, 4 h): Yes^b (transformed to free base crystalline form B) | S: solubility ([3]; FeSSIF, 4 h): 0.081 mg/mL | pH of filtrate ([3]; FeSSIF, 4 h): 4.8 | Crystalline form change ([3]; FeSSIF, 24 h): Yes^a′ | S: solubility ([3]; FeSSIF, 24 h): 0.028 mg/mL | pH of filtrate ([3]; FeSSIF, 24 h): 4.8 | Crystalline form change ([3]; H2O, 1 h): Yes^a | S: solubility ([3]; H2O, 1 h): 0.006 mg/mL | pH of filtrate ([3]; H2O, 1 h): 1.8 | Crystalline form change ([3]; H2O, 4 h): Yes^a | S: solubility ([3]; H2O, 4 h): 0.005 mg/mL | pH of filtrate ([3]; H2O, 4 h): 1.8 | Crystalline form change ([3]; H2O, 24 h): Yes^a | S: solubility ([3]; H2O, 24 h): 0.005 mg/mL | pH of filtrate ([3]; H2O, 24 h): 1.8 | Crystalline form change ([3]; SGF, 1 h): Yes^b′ (transformed to free base crystalline form B + additional diffraction peaks) | S: solubility ([3]; SGF, 1 h): 0.037 mg/mL | pH of filtrate ([3]; SGF, 1 h): 1.5 | Crystalline form change ([3]; SGF, 4 h): Yes^a+b′ | S: solubility ([3]; SGF, 4 h): 0.033 mg/mL | pH of filtrate ([3]; SGF, 4 h): 1.5 | Crystalline form change ([3]; SGF, 24 h): Yes^a′ | S: solubility ([3]; SGF, 24 h): 0.012 mg/mL | pH of filtrate ([3]; SGF, 24 h): 1.5 | 1-hour solubility in the three biological vehicles other than H2O compared with the other forms ([3]; SGF, FaSSIF, FeSSIF, 1 h): highest 1-hour solubility

Cc1cnc(-c2cc(O[C@@H](C)[C@@H](C)O)cc(C(=O)N[C@H](C)c3cnc(C(F)(F)F)nc3)c2F)s1 [Crystalline form A of hydrochloride]
crystalline form after DVS test ([1]; 25° C.): remained unchanged | vapor sorption [1]: about 0.49% | hygroscopicity [1]: slight hygroscopicity | HPLC Purity (area %) [2, 4]: 99.57 area % | HPLC purity Relative to starting (%) [2, 4]: 99.98% | HPLC Purity (area %) [2, 5]: 99.58 area % | HPLC purity Relative to starting (%) [2, 5]: 99.99% | change of HPLC purity after placement under the corresponding conditions [2]: no significant change | HPLC Purity (area %) ([2]; 60° C./sealed, 1 day): 99.58 area % | HPLC purity Relative to starting (%) ([2]; 60° C./sealed, 1 day): 99.99% | HPLC Purity (area %) ([2]; Starting): 99.59 area % | Crystalline form change ([3]; FaSSIF, 1 h): Yes^a | S: solubility ([3]; FaSSIF, 1 h): 0.009 mg/mL | pH of filtrate ([3]; FaSSIF, 1 h): 5.2 | Crystalline form change ([3]; FaSSIF, 4 h): Yes^a | S: solubility ([3]; FaSSIF, 4 h): 0.009 mg/mL | pH of filtrate ([3]; FaSSIF, 4 h): 5.2 | Crystalline form change ([3]; FaSSIF, 24 h): Yes^a | S: solubility ([3]; FaSSIF, 24 h): 0.014 mg/mL | pH of filtrate ([3]; FaSSIF, 24 h): 5.2 | Crystalline form change ([3]; FeSSIF, 1 h): Yes^a | S: solubility ([3]; FeSSIF, 1 h): 0.030 mg/mL | pH of filtrate ([3]; FeSSIF, 1 h): 4.9 | Crystalline form change ([3]; FeSSIF, 4 h): Yes^a | S: solubility ([3]; FeSSIF, 4 h): 0.027 mg/mL | pH of filtrate ([3]; FeSSIF, 4 h): 4.9 | Crystalline form change ([3]; FeSSIF, 24 h): Yes^a | S: solubility ([3]; FeSSIF, 24 h): 0.023 mg/mL | pH of filtrate ([3]; FeSSIF, 24 h): 4.9 | Crystalline form change ([3]; H2O, 1 h): Yes^a | S: solubility ([3]; H2O, 1 h): 0.004 mg/mL | pH of filtrate ([3]; H2O, 1 h): 2.1 | Crystalline form change ([3]; H2O, 4 h): Yes^a | S: solubility ([3]; H2O, 4 h): 0.003 mg/mL | pH of filtrate ([3]; H2O, 4 h): 2.1 | Crystalline form change ([3]; H2O, 24 h): Yes^a | S: solubility ([3]; H2O, 24 h): 0.004 mg/mL | pH of filtrate ([3]; H2O, 24 h): 2.1 | solubility at 24 h ([3]; SGF, 37 °C, pH 1.8, simulated gastric fluid, thermodynamic from solid, SGF, 24 h, read-out: S: solubility): 11 µg/mL | Crystalline form change ([3]; SGF, 1 h): Yes^a | S: solubility ([3]; SGF, 1 h): 0.014 mg/mL | pH of filtrate ([3]; SGF, 1 h): 1.6 | Crystalline form change ([3]; SGF, 4 h): Yes^a | S: solubility ([3]; SGF, 4 h): 0.011 mg/mL | pH of filtrate ([3]; SGF, 4 h): 1.6 | Crystalline form change ([3]; SGF, 24 h): Yes^a | pH of filtrate ([3]; SGF, 24 h): 1.6
